Measurements: article PMC12340957, “Interactions between Lipopolysaccharide and Peptide Bacteriocin BacSp222 Influence Their Biological Activities” (ACS Infectious Diseases, 2025)
Ends that are not written are not given here. * marks the point of attachment. For = O=C*

Legend:
[1] = test system: hemolymph phenoloxidase; assay: Hemolymph phenoloxidase (PO) activation in larvae; assay type: in vivo, greater wax moth; settings: for PO activity after BacSp222 alone: 5 μL injection
Experimental: The experiments were based on a previously published protocol. The greater wax moth was reared in the dark on honeybee nest debris at 28 °C and 70% humidity. Last instar larvae were used for the experiments. To test the activation of the phenoloxidase (PO) system by LPS, larvae were divided into groups of 10 insects. One group was injected with PBS buffer without Ca^2+ and Mg^2+, the other one with 1 μg of LPS O55:B5 (IEC) diluted in PBS, and the next one with the mixture of 1 μg of LPS and BacSp222 at concentrations 3, 6, or 30 μM. The last group was treated with the bacteriocin alone at the same concentrations. Before injection, all prepared solutions were preincubated for 30 min at 30 °C for possible complex formation, while the puncture surface of each larva was disinfected with 70% ethanol. Injection was done in the last but one proleg by a Hamilton syringe at a volume of 5 μL. After injection, the larvae were placed in Petri dishes on sterile filter paper. Bleeding larvae were excluded from the experiment. […]
The assay was performed similarly to the previous papers. , The hemolymph was diluted 5 times in apyrogenic water, and 2 μL of this dilution was added to 18 μL of buffer A (50 mM Tris–HCl pH 7.4, 150 mM NaCl, 5 mM CaCl2) in a 96-well plate. After 20 min of preincubation at room temperature, 180 μL of a 2 mM solution of 3,4-dihydroxy- L -phenylalanine (L-DOPA) in buffer B (50 mM Na2HPO4, 50 mM NaH2PO4; pH 6.5) was added, and then, the absorbance at 490 nm was measured immediately (time 0) at the indicated time-points. […]
All experiments were conducted three times independently, except for the DLS and ITC measurements, which were performed once and twice, respectively. […] For experiments concerning measurements of TNF, NO, cellular metabolic activity, TLRs activation, and LAL assay, the statistical significance of differences between the particular result and control was calculated using a two-way ANOVA with Tukey’s multiple comparison test as a posthoc test and shown in figures as asterisks *, **, or ***, indicating p < 0.05, p < 0.01, and p < 0.001, respectively. […]

[2] = test system: mouse immune cells; settings: in the presence of IFN-gamma; ref number not given; cited from earlier work
Source text: (§1) A good example of such a multifunctional and immunomodulatory bacteriocin is the peptide BacSp222, produced by an opportunistic canine pathogen, strain 222. BacSp222 is a 50 amino acid long linear peptide encoded on a plasmid and is produced without a leader sequence, retaining a formylated N-terminal methionine. Its amino acid sequence seems to be unique, but the general physicochemical properties of BacSp222 resemble features of a group of several previously described bacteriocins of, predominantly, different staphylococci: lacticins Q and Z, aureocins A53 and AurK411, capidermicin, and epid ...

[3] = test system: Gram-positive bacteria; settings: pore formation; ref number not given; cited from earlier work
Source text: as §1

[4] = test system: pro-inflammatory cytokines; settings: TNF, MCP-1, IL-1-alpha, IL-8; via TLR2/TLR6, MyD88, NF-κB; ref our recent studies; cited from earlier work
Source text: as §1

[5] = test system: ATCC 25923, ATCC 29663, ATCC 6633, and ATCC 4698; assay: Residual bactericidal activity, radial diffusion assay; assay type: cell-based; settings: 10 or 50 μM BacSp222, 16 h, n = 3
Experimental: The residual bactericidal activity of BacSp222 after preincubation with different LPS serotypes and at different mass proportions was determined using radial diffusion assay toward the following bacteria: ATCC 25923, ATCC 29663, ATCC 6633, and ATCC 4698. BacSp222 at final concentrations of 10 μM (for and ) or 50 μM (for and ) was preincubated in PBS without Ca^2+ and Mg^2+ for 15 min at 37 °C with LPS O55:B5 (IEC) or O111:B4 (PE and IEC) at proportions equivalent to 1:1 or 1:17 mass ratios (BacSp222:LPS). After preincubation, 5 μL aliquots of the solutions were dispensed as drops at different sites of soft Mueller–Hinton Broth II (MHBII, Merck, Darmstadt, Germany) plates containing 0.75% (w/v) agarose and a suspension of the tested bacteria strains. After liquid preparations were entered into the solid medium, the plates were incubated at 37 °C for 16 h, and the antibacterial activity of the studied samples was determined as the diameter of the bacterial growth inhibition zone. In each experiment, the appropriate controls were applied on the plate, and they comprised adequate amounts of BacSp222 and LPS not incubated together.

[6] = test system: Gram-negative; settings: ref number not given; cited from earlier work
Source text: The present study sheds more light on the multiple biological activities of BacSp222 and further makes the image of this peptide even more complex.

For-MAGLLRFLLSKGRALYNWAKSHVGKVWEWLKSGATYEQIKEWIENALGWR [BacSp222]
PO activity after BacSp222 alone ([1]; 3 μM BacSp222 alone (printed "bacteriocin alone")): PO activity at a similar level as the injection of PBS buffer | inhibition of LPS-induced PO activation ([1]; 3 μM BacSp222 preincubated (30 min, 30 °C) and coinjected with 1 μg LPS O55:B5 (IEC), n = 3, printed "inhibited ... to about 50%"): about 50% | PO activity after BacSp222 alone ([1]; 6 μM BacSp222 alone): induced PO activity | induction of NO secretion [2]: capable of stimulating mouse immune cells to express an inducible nitric oxide synthase and, consequently, to secrete nitric oxide (NO) | bactericidal activity, Gram-positive bacteria [3]: kills a wide range of Gram-positive bacteria | induction of pro-inflammatory cytokines [4]: induces the synthesis of many pro-inflammatory cytokines | effect of LPS on bactericidal potential of BacSp222 ([5]; 17-fold mass excess of LPS (1:17), all strains but one exception): completely inhibited the killing potential of BacSp222 | effect of LPS on bactericidal potential of BacSp222 ([5]; BacSp222:LPS 1:1 mass ratio, all LPS preparations, all four strains, preincubated 15 min 37 °C, peptide referred to as "bacteriocin"/"the peptide"): only marginally reduces the bactericidal potential of the peptide | activity against Gram-negative bacteria [6]: inactive against Gram-negative ones
